Legend:
Assay in all cases: relative viability (nuclei count vs DMSO), 5 days (fraction); higher = more cells survive
NCI-H520 = system: NCI-H520
Method in brief: (§1)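 After 5 days of treatment, lung cancer cells in 1536-well plates were fixed and stained in a single step (final 0.05% Triton X-100, 1% formaldehyde, 1 ug/ml Hoechst) and their nuclei counted on 4× images. Treatment had been applied by pin tool the day after seeding as one drug alone or as a fixed anchor-drug dose with five library-drug doses (not always all listed) in √10 steps. Relative viability is the nuclei count of treated wells divided by that of vehicle wells, and values are medians of duplicate plates.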

NCI-H1651 = system: NCI-H1651
Method in brief: as §1

NCI-H647 = system: NCI-H647
Method in brief: as §1

H3255 = system: H3255
Method in brief: as §1

HCC-15 = system: HCC-15
Method in brief: as §1

NCI-H358 = system: NCI-H358
Method in brief: as §1

NCI-H1755 = system: NCI-H1755
Method in brief: as §1

NCI-H727 = system: NCI-H727
Method in brief: as §1

NCI-H650 = system: NCI-H650
Method in brief: as §1

LCLC-103H = system: LCLC-103H
Method in brief: as §1

NCI-H1437 = system: NCI-H1437
Method in brief: as §1

HCC-827 = system: HCC-827
Method in brief: as §1

NCI-H661 = system: NCI-H661
Method in brief: as §1

NCI-H2087 = system: NCI-H2087
Method in brief: as §1

COR-L23 = system: COR-L23
Method in brief: as §1

EPLC-272H = system: EPLC-272H
Method in brief: as §1

NCI-H1975 = system: NCI-H1975
Method in brief: as §1

NCI-H1792 = system: NCI-H1792
Method in brief: as §1

NCI-H1944 = system: NCI-H1944
Method in brief: as §1

COR-L 105 = system: COR-L 105
Method in brief: as §1

Q: With `COCC1(CO)C(=O)C2CCN1CC2` (stereo not given) [PRIMA-1MET] + C[C@]1(O)C[C@@H](c2nc(-c3ccc4ccc(-c5ccccc5)nc4c3)c3c(N)nccn32)C1 [Linsitinib] (partner 1 µM) as the compound, how does the relative viability (NCI-H520; first compound 0.2 µM) read?
A: 1.05

Q: And the relative viability (NCI-H520; first compound 0.6325 µM)?
A: 1

Q: What about the relative viability (NCI-H520; first compound 6.325 µM) of the same compound?
A: 0.869

Q: What about the relative viability (NCI-H520; first compound 20 µM) of the same compound?
A: 0.0887

Q: What about the relative viability (NCI-H1651; first compound 0.2 µM) of the same compound?
A: 1.13

Q: And the relative viability (NCI-H1651; first compound 0.6325 µM)?
A: 0.981

Q: And the relative viability (NCI-H1651; first compound 2 µM)?
A: 0.907

Q: What about the relative viability (NCI-H1651; first compound 6.325 µM) of the same compound?
A: 0.955

Q: What about the relative viability (NCI-H1651; first compound 20 µM) of the same compound?
A: 0.839

Q: And the relative viability (NCI-H647; first compound 0.2 µM)?
A: 1.42

Q: What about the relative viability (NCI-H647; first compound 0.6325 µM) of the same compound?
A: 1.16

Q: And the relative viability (NCI-H647; first compound 2 µM)?
A: 1.18

Q: What about the relative viability (NCI-H647; first compound 6.325 µM) of the same compound?
A: 1.42

Q: What about the relative viability (NCI-H647; first compound 20 µM) of the same compound?
A: 1.18

Q: And the relative viability (H3255; first compound 0.2 µM)?
A: 1.13

Q: What about the relative viability (H3255; first compound 0.6325 µM) of the same compound?
A: 1.01

Q: And the relative viability (H3255; first compound 2 µM)?
A: 0.8

Q: What about the relative viability (H3255; first compound 6.325 µM) of the same compound?
A: 1.01

Q: And the relative viability (H3255; first compound 20 µM)?
A: 0.918

Q: And the relative viability (HCC-15; first compound 0.2 µM)?
A: 0.893

Q: And the relative viability (HCC-15; first compound 0.6325 µM)?
A: 0.544

Q: What about the relative viability (HCC-15; first compound 2 µM) of the same compound?
A: 0.78

Q: What about the relative viability (HCC-15; first compound 6.325 µM) of the same compound?
A: 0.903

Q: And the relative viability (HCC-15; first compound 20 µM)?
A: 0.722

Q: What about the relative viability (NCI-H358; first compound 0.2 µM) of the same compound?
A: 0.97

Q: What about the relative viability (NCI-H358; first compound 0.6325 µM) of the same compound?
A: 0.399

Q: What about the relative viability (NCI-H358; first compound 6.325 µM) of the same compound?
A: 0.757

Q: What about the relative viability (NCI-H358; first compound 20 µM) of the same compound?
A: 0.0326

Q: What about the relative viability (NCI-H1755; first compound 0.2 µM) of the same compound?
A: 0.979

Q: What about the relative viability (NCI-H1755; first compound 0.6325 µM) of the same compound?
A: 0.946

Q: What about the relative viability (NCI-H1755; first compound 2 µM) of the same compound?
A: 0.937

Q: And the relative viability (NCI-H1755; first compound 6.325 µM)?
A: 1.02

Q: What about the relative viability (NCI-H1755; first compound 20 µM) of the same compound?
A: 0.983

Q: And the relative viability (NCI-H727; first compound 0.2 µM)?
A: 0.386

Q: And the relative viability (NCI-H727; first compound 0.6325 µM)?
A: 0.247

Q: What about the relative viability (NCI-H727; first compound 2 µM) of the same compound?
A: 0.301

Q: And the relative viability (NCI-H727; first compound 6.325 µM)?
A: 0.356

Q: What about the relative viability (NCI-H727; first compound 20 µM) of the same compound?
A: 0.169

Q: What about the relative viability (NCI-H650; first compound 0.2 µM) of the same compound?
A: 1.13

Q: And the relative viability (NCI-H650; first compound 2 µM)?
A: 0.859

Q: What about the relative viability (NCI-H650; first compound 6.325 µM) of the same compound?
A: 0.674

Q: What about the relative viability (NCI-H650; first compound 20 µM) of the same compound?
A: 0.107

Q: What about the relative viability (LCLC-103H; first compound 0.2 µM) of the same compound?
A: 1.24

Q: What about the relative viability (LCLC-103H; first compound 0.6325 µM) of the same compound?
A: 0.956

Q: And the relative viability (LCLC-103H; first compound 2 µM)?
A: 0.905

Q: And the relative viability (LCLC-103H; first compound 6.325 µM)?
A: 1.12

Q: What about the relative viability (LCLC-103H; first compound 20 µM) of the same compound?
A: 1.1

Q: And the relative viability (NCI-H1437; first compound 0.2 µM)?
A: 1.08

Q: And the relative viability (NCI-H1437; first compound 0.6325 µM)?
A: 0.982

Q: What about the relative viability (NCI-H1437; first compound 2 µM) of the same compound?
A: 1.02

Q: What about the relative viability (NCI-H1437; first compound 6.325 µM) of the same compound?
A: 1.1

Q: What about the relative viability (NCI-H1437; first compound 20 µM) of the same compound?
A: 0.753

Q: And the relative viability (HCC-827; first compound 0.2 µM)?
A: 1.04

Q: What about the relative viability (HCC-827; first compound 0.6325 µM) of the same compound?
A: 0.884

Q: What about the relative viability (HCC-827; first compound 2 µM) of the same compound?
A: 0.698

Q: What about the relative viability (HCC-827; first compound 6.325 µM) of the same compound?
A: 0.962

Q: And the relative viability (HCC-827; first compound 20 µM)?
A: 0.906

Q: And the relative viability (NCI-H661; first compound 0.2 µM)?
A: 0.561

Q: And the relative viability (NCI-H661; first compound 0.6325 µM)?
A: 0.507

Q: What about the relative viability (NCI-H661; first compound 6.325 µM) of the same compound?
A: 0.532

Q: And the relative viability (NCI-H661; first compound 20 µM)?
A: 0.283

Q: What about the relative viability (NCI-H2087; first compound 0.2 µM) of the same compound?
A: 1.07

Q: And the relative viability (NCI-H2087; first compound 0.6325 µM)?
A: 0.85

Q: And the relative viability (NCI-H2087; first compound 2 µM)?
A: 0.875

Q: What about the relative viability (NCI-H2087; first compound 6.325 µM) of the same compound?
A: 1.24

Q: And the relative viability (NCI-H2087; first compound 20 µM)?
A: 0.691

Q: What about the relative viability (COR-L23; first compound 0.2 µM) of the same compound?
A: 0.94

Q: And the relative viability (COR-L23; first compound 0.6325 µM)?
A: 0.942

Q: What about the relative viability (COR-L23; first compound 2 µM) of the same compound?
A: 0.978

Q: What about the relative viability (COR-L23; first compound 6.325 µM) of the same compound?
A: 0.873

Q: What about the relative viability (COR-L23; first compound 20 µM) of the same compound?
A: 0.0228

Q: And the relative viability (EPLC-272H; first compound 0.2 µM)?
A: 1.26

Q: What about the relative viability (EPLC-272H; first compound 0.6325 µM) of the same compound?
A: 1.01

Q: And the relative viability (EPLC-272H; first compound 2 µM)?
A: 1.06

Q: And the relative viability (EPLC-272H; first compound 6.325 µM)?
A: 1.2

Q: What about the relative viability (EPLC-272H; first compound 20 µM) of the same compound?
A: 0.973

Q: What about the relative viability (NCI-H1975; first compound 0.2 µM) of the same compound?
A: 1.14

Q: And the relative viability (NCI-H1975; first compound 0.6325 µM)?
A: 0.838

Q: What about the relative viability (NCI-H1975; first compound 2 µM) of the same compound?
A: 0.875

Q: And the relative viability (NCI-H1975; first compound 6.325 µM)?
A: 1

Q: And the relative viability (NCI-H1975; first compound 20 µM)?
A: 0.826

Q: And the relative viability (NCI-H1792; first compound 0.2 µM)?
A: 0.521

Q: What about the relative viability (NCI-H1792; first compound 0.6325 µM) of the same compound?
A: 0.477

Q: And the relative viability (NCI-H1792; first compound 2 µM)?
A: 0.368

Q: What about the relative viability (NCI-H1792; first compound 6.325 µM) of the same compound?
A: 0.578

Q: And the relative viability (NCI-H1792; first compound 20 µM)?
A: 0.53

Q: And the relative viability (NCI-H1944; first compound 0.2 µM)?
A: 1.27

Q: What about the relative viability (NCI-H1944; first compound 0.6325 µM) of the same compound?
A: 0.95

Q: What about the relative viability (NCI-H1944; first compound 6.325 µM) of the same compound?
A: 1.27

Q: What about the relative viability (NCI-H1944; first compound 20 µM) of the same compound?
A: 1.17

Q: And the relative viability (COR-L 105; first compound 0.2 µM)?
A: 0.943

Q: What about the relative viability (COR-L 105; first compound 0.6325 µM) of the same compound?
A: 0.815

Q: What about the relative viability (COR-L 105; first compound 2 µM) of the same compound?
A: 0.823

Q: What about the relative viability (COR-L 105; first compound 6.325 µM) of the same compound?
A: 0.859

Q: What about the relative viability (COR-L 105; first compound 20 µM) of the same compound?
A: 0.168

Reference: the supplement of paper PMC10307832
